Results as given in PMC9673804, “Design, synthesis and antitumor evaluation of novel pyrazolo[3,4-d]pyrimidines incorporating different amino acid conjugates as potential DHFR inhibitors” (Journal of Enzyme Inhibition and Medicinal Chemistry, 2022).
Where “and” joins values, the source holds several entries; their conditions need not be identical. Equal entries are not always repeated.

What was measured:
[1] = tested on: cervical carcinoma (HeLa); test: SRB cytotoxicity assay, HeLa; assay type: cell-based; conditions: Homo sapiens, HeLa cells
[2] = tested on: human prostate cancer (PC-3); test: SRB cytotoxicity assay, PC-3; assay type: cell-based; conditions: PC-3 cells
Description: (§1) The SRB colorimetric assay was employed to assess the synthesized compounds’ cytotoxic effects on several cancer cell lines (Table 1)[11–14]. […] Furthermore, the effect of tested compounds was evaluated on the normal immortalized HPDE cell line.
(§2) Sulforhodamine B (SRB) assay was employed to assay in-vitro antitumor activities of all the synthesised compounds as describer previously. […] The cell lines were obtained from the American Type Culture Collection (Rockville, USA).

[3] = tested on: colorectal carcinoma (HCT-116); test: SRB cytotoxicity assay, HCT-116; assay type: cell-based; conditions: Homo sapiens, HCT-116 cells
Description: as §1, §2

[4] = tested on: pancreatic human cancer cell lines (BxPC-3); test: SRB cytotoxicity assay, BxPC-3; assay type: cell-based; conditions: BxPC-3 cells
Description: as §1, §2

[5] = tested on: human hepatocellular carcinoma (HepG-2); test: SRB cytotoxicity assay, HepG-2; assay type: cell-based; conditions: HepG2, HepG-2 cells
Description: as §1, §2

[6] = tested on: mammary gland breast cancer (MCF-7); test: SRB cytotoxicity assay, MCF-7; assay type: cell-based; conditions: Homo sapiens, MCF7, MCF-7 cells
Description: as §1, §2

human DHFR enzyme = molecular target: T1, human DHFR enzyme (Homo sapiens, UniProt P00374); test: Elisa assay of human DHFR enzyme; assay type: biochemical; conditions: for IC50: DHFR ELISA kit, triplicate; for inhibition at 0.1 µM: conc 0.1 uM; for inhibition at 1 µM: conc 1 uM; for inhibition at 10 µM: conc 10 uM; for inhibition at 100 µM: conc 100 uM
T1 construct: purchased MyBioSource MBS9312476
T1 sequence (P00374 1-187): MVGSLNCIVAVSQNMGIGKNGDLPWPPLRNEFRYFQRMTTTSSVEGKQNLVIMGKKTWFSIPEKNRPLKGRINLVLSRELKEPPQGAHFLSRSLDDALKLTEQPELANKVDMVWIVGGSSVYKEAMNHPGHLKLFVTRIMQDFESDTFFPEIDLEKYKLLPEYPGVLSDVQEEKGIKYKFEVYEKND
Description: Enzyme-linked immunosorbent assay (ELISA) assay technique was used to evaluate the anti-DHFR effects of all the synthesised compounds on as described previously. The DHFR ELISA kit (MyBioSource, MBS9312476 San Diego, CA, USA) was used according to the manufacturer instructions. […] The test was repeated in triplicate, and the significance was assessed by one-way ANOVA test followed by Tukey’s posttest, where p < 0.05 was considered significance.

[7] = tested on: normal immortalised pancreatic cell line (HPDE); test: SRB cytotoxicity assay, normal HPDE cells; assay type: cell-based; conditions: normal immortalized HPDE cell line
Description: as §1, §2

Row | IC50 (human DHFR enzyme) | inhibition at 0.1 µM (human DHFR enzyme) | inhibition at 1 µM (human DHFR enzyme) | inhibition at 10 µM (human DHFR enzyme) | inhibition at 100 µM (human DHFR enzyme) | SMILES | IC50 [1] | IC50 [2] | IC50 [3] | IC50 [4] | IC50 [5] | IC50 [6] | IC50 [7]
1 | 42500 ± 780 nM | 6.4% | 20% | 38% | 72% | CC(NC(=O)c1ccc(Nc2ncnc3c2cnn3-c2ccccc2)cc1)C(=O)O (stereo not drawn) [Compound 7b, 2-{4-[(1-Phenyl-1H-pyrazolo[3,4-d]pyrimidin-4-yl)amino]benzamido}propanoic acid] | 29.2 ± 1.9 µM | 34.2 ± 2.61 µM | 29.6 ± 1.91 µM | 31.2 ± 2.8 µM | 19.2 ± 1.87 µM | 35.7 ± 2.09 µM | > 50 µM
2 | < 1000 nM and ~610 nM and 610 nM | 39% | 65% | 80% | 94% | CC(C)C(NC(=O)c1ccc(Nc2ncnc3c2cnn3-c2ccccc2)cc1)C(=O)O (stereo not drawn) [Compound 7c, 3-Methyl-2-{4-[(1-phenyl-1H-pyrazolo[3,4-d]pyrimidin-4-yl)amino]benzamido}butanoic acid] | 9.39 ± 0.25 µM | 11.2 ± 0.34 µM | 10.6 ± 1.1 µM | 10.2 ± 1.01 µM | 12.2 ± 1.14 µM | 6.56 ± 0.18 µM | > 50 µM
3 | < 1000 nM and 430 nM | 42% | 66% | 85% | 95% | CCC(C)C(NC(=O)c1ccc(Nc2ncnc3c2cnn3-c2ccccc2)cc1)C(=O)O (stereo not drawn) [Compound 7d, 3-Methyl-2-{4-[(1-phenyl-1H-pyrazolo[3,4-d]pyrimidin-4-yl)amino]benzamido}pentanoic acid] | 8.09 ± 0.51 µM | 9.99 ± 0.81 µM | 10.1 ± 1.01 µM | 11.2 ± 0.41 µM | 9.09 ± 0.71 µM | 5.51 ± 0.28 µM | > 50 µM
4 | 1280 ± 30 nM | 37% | 55% | 70% | 84% | O=C(NC(CS)C(=O)O)c1ccc(Nc2ncnc3c2cnn3-c2ccccc2)cc1 (stereo not drawn) [Compound 7g, 3-Mercapto-2-{4-[(1-phenyl-1H-pyrazolo[3,4-d]pyrimidin-4-yl)amino]benzamido}propanoic acid] | 12.3 ± 1.2 µM | 13.2 ± 1.52 µM | 12.2 ± 1.2 µM | 15.2 ± 0.22 µM | 10.2 ± 0.92 µM | 10.8 ± 1.1 µM | > 50 µM
5 | 8470 ± 180 nM | 21% | 36% | 54% | 81% | CSCCC(NC(=O)c1ccc(Nc2ncnc3c2cnn3-c2ccccc2)cc1)C(=O)O (stereo not drawn) [Compound 7h, 4-(Methylthio)-2-{4-[(1-phenyl-1H-pyrazolo[3,4-d]pyrimidin-4-yl)amino]benzamido}butanoic acid] | 18 ± 1.2 µM | 17 ± 2.02 µM | 19.3 ± 0.85 µM | 17.9 ± 1.03 µM | 17 ± 0.92 µM | 20 ± 2.01 µM | > 50 µM

Continued, compound first:

Row | SMILES | IC50 (human DHFR enzyme) | inhibition at 0.1 µM (human DHFR enzyme) | inhibition at 1 µM (human DHFR enzyme) | inhibition at 10 µM (human DHFR enzyme) | inhibition at 100 µM (human DHFR enzyme) | IC50 [1] | IC50 [2] | IC50 [3] | IC50 [4] | IC50 [5] | IC50 [6] | IC50 [7]
6 | O=C(c1ccc(Nc2ncnc3c2cnn3-c2ccccc2)cc1)n1nnc2ccccc21 [Compound 6, {1H-benzo[d][1,2,3]triazol-1-yl}{4-[(1-phenyl-1H-pyrazolo-[3,4-d]pyrimidin-4-yl)-amino]phenyl}-methanone] | 7990 ± 160 nM | 17% | 29% | 61% | 89% | 15.1 ± 1.21 µM | 14.9 ± 1.24 µM | 17.3 ± 2.18 µM | 14.2 ± 1.36 µM | 13 ± 1.86 µM | 11.9 ± 1.1 µM | > 50 µM
7 | O=C(O)CNC(=O)c1ccc(Nc2ncnc3c2cnn3-c2ccccc2)cc1 [Compound 7a, 2-{4-[(1-Phenyl-1H-pyrazolo[3,4-d]pyrimidin-4-yl)amino]benzamido}acetic acid] | 13300 ± 240 nM | 12% | 30% | 57% | 81% | 19.4 ± 1.21 µM | 23 ± 1.03 µM | 28.2 ± 1.93 µM | 19.4 ± 1.56 µM | 15.5 ± 0.96 µM | 15.3 ± 1.29 µM | > 50 µM
8 | O=C(O)CCC(NC(=O)c1ccc(Nc2ncnc3c2cnn3-c2ccccc2)cc1)C(=O)O (stereo not drawn) [Compound 7e, 2-{4-[(1-Phenyl-1H-pyrazolo[3,4-d]pyrimidin-4-yl)amino]benzamido}pentanedioic acid] | 1830 ± 40 nM | 28% | 57% | 72% | 89% | 13.1 ± 1.01 µM | 13.8 ± 1.14 µM | 15.3 ± 1.18 µM | 15.2 ± 1.15 µM | 16 ± 0.8 µM | 11.9 ± 1.1 µM | > 50 µM
9 | O=C(NC(Cc1c[nH]cn1)C(=O)O)c1ccc(Nc2ncnc3c2cnn3-c2ccccc2)cc1 (stereo not drawn) [Compound 7i, 3-(1h-Imidazol-4-yl)-2-{4-[(1-phenyl-1H-pyrazolo[3,4-d]pyrimidin-4-yl)amino]benzamido}-propanoic acid] | < 1000 nM and 820 nM | 35% | 63% | 80% | 94% | 10.9 ± 1.99 µM | 12.8 ± 2.01 µM | 13 ± 1.01 µM | 10.5 ± 3.01 µM | 9.26 ± 1.56 µM | 13.2 ± 1.21 µM | > 50 µM
10 | O=C(O)C1CCCN1C(=O)c1ccc(Nc2ncnc3c2cnn3-c2ccccc2)cc1 (stereo not drawn) [Compound 7j, 1-{4-[(1-Phenyl-1H-pyrazolo[3,4-d]pyrimidin-4-yl)amino]benzoyl}pyrrolidine-2-carboxylic acid] | < 1000 nM and 540 nM | 41% | 64% | 80% | 93% | 9.29 ± 0.2 µM | 11.2 ± 0.7 µM | 8.1 ± 0.2 µM | 6.19 ± 0.43 µM | 10.3 ± 1.2 µM | 8.19 ± 1.2 µM | > 50 µM
11 | O=C(NC(Cc1c[nH]c2ccccc12)C(=O)O)c1ccc(Nc2ncnc3c2cnn3-c2ccccc2)cc1 (stereo not drawn) [Compound 7k, 3-(1h-Indol-3-yl)-2-{4-[(1-phenyl-1H-pyrazolo[3,4-d]pyrimidin-4-yl)amino]benzamido}propanoic acid] | 7000 ± 170 nM | 21% | 37% | 60% | 77% | 19.5 ± 1.1 µM | 19.9 ± 1.35 µM | 18 ± 1.23 µM | 19.1 ± 1.23 µM | 25.54 ± 0.14 µM | 28.9 ± 1.91 µM | > 50 µM
12 | O=C(NC(Cc1ccccc1)C(=O)O)c1ccc(Nc2ncnc3c2cnn3-c2ccccc2)cc1 (stereo not drawn) [Compound 7l, 3-Phenyl-2-{4-[(1-phenyl-1H-pyrazolo[3,4-d]pyrimidin-4-yl)amino]benzamido}propanoic acid] | < 1000 nM and ~660 nM and 660 nM | 34% | 68% | 81% | 92% | 9.05 ± 1.2 µM | 10.1 ± 0.9 µM | 13 ± 0.89 µM | 11.5 ± 0.76 µM | 13.2 ± 1.29 µM | 10.7 ± 1.09 µM | > 50 µM
13 | O=C(NC(Cc1ccc(O)cc1)C(=O)O)c1ccc(Nc2ncnc3c2cnn3-c2ccccc2)cc1 (stereo not drawn) [Compound 7m, 3-(4-Hydroxyphenyl)-2-{4-[(1-phenyl-1H-pyrazolo[3,4-d]pyrimidin-4-yl)amino]benzamido}-propanoic acid] | 1340 ± 30 nM | 36% | 52% | 73% | 86% | 11.8 ± 1.13 µM | 12.7 ± 1.87 µM | 13.3 ± 2.21 µM | 12 ± 1.14 µM | 14.2 ± 0.98 µM | 11.3 ± 1.28 µM | > 50 µM
14 | COc1cccc2c1C(=O)c1c(O)c3c(c(O)c1C2=O)C[C@@](O)(C(=O)CO)C[C@@H]3O[C@H]1C[C@H](N)[C@H](O)[C@H](C)O1 [Doxorubicin, reference compound] |  |  |  |  |  |  | 9.01 ± 0.09 µM |  | 7.23 ± 0.1 µM | 4.6 ± 0.44 µM | 4.25 ± 0.15 µM | > 50 µM
15 | CN(Cc1cnc2nc(N)nc(N)c2n1)c1ccc(C(=O)N[C@@H](CCC(=O)O)C(=O)O)cc1 [Methotrexate, methotrexate, reference compound] |  |  |  |  |  | 294.8 ± 0.51 µM | 42.3 ± 7.25 µM | 99.98 ± 0.22 µM | 29.1 ± 0.31 µM | 800.24 ± 0.16 µM | 66.11 ± 0.15 µM | > 50 µM
